{"source": "patent US6716574B2", "about": "“Osp-C derived peptide fragments” (Dako A/S, priority 1996, dated 2004)", "molecules": {"B1": {"name": "rOspCfl from B. afzelii: full-length recombinant OspC from strain DK26 of Borrelia afzelii (SEQ ID NO: 7) (protein, listed as Borrelia afzelii)", "chain": "MKKNTLSAILMTLFLFISCNNSGKGGDSASTNPADESAKGPNLTEISKKITDSNAFVLAVKEVETLVLSIDELAKKAIGQKIDNNNGLAALNNQNGSLLAGAYAISTLITEKLSKLKNLEELKTEIAKAKKCSEEFTNKLKSGHADLGKQDATDDHAKAAILKTHATTDKGAKEFKDLFESVEGLLKAAQVALTNSVKELTSPVVAESPKKP"}, "B2": {"name": "B. afzelii derived rOspCt: recombinant B. afzelii DK26 OspC truncate lacking the seven C-terminal amino acids (protein)", "chain": "CNNSGKGGDSASTNPADESAKGPNLTEISKKITDSNAFVLAVKEVETLVLSIDELAKKAIGQKIDNNNGLAALNNQNGSLLAGAYAISTLITEKLSKLKNLEELKTEIAKAKKCSEEFTNKLKSGHADLGKQDATDDHAKAAILKTHATTDKGAKEFKDLFESVEGLLKAAQVALTNSVKELTSPVV", "modifications": "left off: small tags and cut ends", "notes": "recombinant B. afzelii DK26 OspC truncate lacking the seven C-terminal amino acids"}, "B3": {"name": "rOspCfl from B. burgdorferi sensu stricto: full-length recombinant OspC from strain DK7 of Borrelia burgdorferi sensu stricto (SEQ ID NO: 5) (protein)", "chain": "MKKNTLSAILMTLFLFISCNNSGKDGNTSANSADESVKGPNLTEISKKITDSNAVLLAVKEVEALLSSIDELAKAIGKKIKNDGSLGDEANHNESLLAGAYTISTLITQKLSKLNGSEGLKEKIAAAKKCSEEFSTKLKDNHAQLGIQGVTDENAKKAILKANAAGKDKGVEELEKLSGSLESLSKAAKEMLANSVKELTSPVVVESPKKP", "modifications": "Borrelia burgdorferi sensu stricto"}}, "key": {"[1]": {"test_system": "polyclonal anti-OspC antibodies (IgM) in sera from LB patients", "test": "Inhibition of binding of anti-OspC antibodies in patient sera to rOspC-coated ELISA plates", "design": "species or system human", "details": "for number of sera in which binding to rOspCfl was inhibited: of 5 antisera", "source_text": "Therefore, a set of experiments have been carried out where the ability have been tested of a number of analogues of the C-terminus of SEQ ID NO: 3 to inhibit the immune reactivity between rOspCfl and selected antisera in an ELISA. More specifically, the ability of the various analogues to inhibit the binding of polyclonal anti-OspC antibodies in solution was examined in sera from LB patients to rOspC-coated ELISA plates.\nThe immunoreactivity to OspC was specified by using six randomly selected NB sera with an OD>1.5 in the IgM rOspC ELISA. The respective serum dilutions were determined, based on a serum dilution curve obtained in the IgM rOspC ELISA, for each of the six sera. The highest dilution, which still achieved the maximal OD value was used. 5 sera were diluted 1:200, and one serum 1:1000. The sera were diluted in the buffer used for the IgM rOspC ELISAs.\nThe affinity of the OspC derivatives was measured by incubation of each of the six sera with the respective OspC derivatives at 10 different dilutions (covering a two-fold range) overnight at 4° C. The rOspC ELISA was then performed as described previously, in order to determine the effect of the IgM binding to OspC."}, "[2]": {"test_system": "IgM antibodies to OspC in sera from patients", "test": "Indirect ELISA for IgM antibodies to full-length and truncated recombinant OspC (rOspC ELISA)", "assay_type": "binding, human", "details": "for immunoassay results compared with rOspCfl from B. garinii: sera of Example 2", "procedure": "Indirect ELISA for IgM Antibodies to Full-length and Truncated Recombinant OspC (rOspC ELISA)\nFlat-bottom microdilution plates (Maxisorb; Nunc, Roskilde, Denmark) were coated with 100 μl of rOspC diluted in 0.05 M bicarbonate pH 9.6 for 1 hour at 20° C. on a rocker platform and thereafter overnight at 4° C. The optimum coating concentration was defined as the antigen dilution resulting in the highest ratio of the optical density (OD) between a positive and a negative control serum (P/N ratio). The plates were washed four times à one minute with PBS containing 0.5 M NaCL, and 0.1% (vol/vol) Tween 20 (pH 7.2) and unspecific protein binding was blocked with 100 μl 3% (wt/vol) milk powder in PBS for 1 hour. The plates were washed four times à one minute with PBS containing 0.5 M NaCL, and 0.1% (vol/vol) Tween 20 (pH 7.2). 100 μl of serum diluted 1:200 in PBS containing 0.1% (vol/vol) Tween 20, 0.02% NaN3 and 1% (wt/vol) milk powder was added to the wells and incubated for 2 h at 20° C. The plates were washed four times à one minute with PBS containing 0.5 M NaCL, and 0.1% (vol/vol) Tween 20 (pH 7.2) and 100 μl peroxidase conjugated rabbit anti-human immunoglobulin M (IgM) (Dakopats, Copenhagen, Denmark, code P-215) diluted 1:1000 in PBS pH 7.4 with 0.05% (vol/vol) Tween 20 and 1% (wt/vol) milk powder. After the incubation for 1 h at 20° C. the plates were washed four times à one minute with PBS containing 0.5 M NaCL, and 0.1% (vol/vol) Tween 20 (pH 7.2) and 200 μl of the substrate o-phenylenediamine (0.41 mg/ml; Sigma) in citrate buffer (pH 5) with 0.04% (vol/vol) H2O2) was added to each well. After 15 minutes protected from light, the enzymatic reaction was stopped by the addition of 50 μl of 3M H2SO4. The optical density (OD) at 492 nm was read spectrophotometrically (Immuno Reader, Easy reader EAR 400 AC—SLT Labinstruments, AUSTRIA). Samples were tested in duplicate and retested, if the two OD values differed more than 10% from the mean. To eliminate plate-to-plate and day-to-day variations, a reference serum pool based on seven western blot positive sera were included on every plate for construction of a standard dilution curve with a two fold dilution ranging from 1:200 to 1:6400. The OD value of every sample was adjusted to this standard curve. Positive and negative control sera were included on every plate. The positive control sera were diluted 1:200, 1:400 and 1:800 on every plate to check for parallelism between the standard reference curve and the dilution curve of the positive control sera.\nThe diagnostic cutoff OD was adjusted to be 98% specific for an IgM assay on the basis of serum samples from 100 healthy danish blood donors, and was 0.230 for the IgM assay.\nIn a preliminary setup, rOspCt was used in the above-described rOspC ELISA. Sera from 47 patients with EM, 50 with NB, 30 with ACA and 29 with syphilis were tested against rOspCt.\nThe capability of an immunological agent according to the present invention to react with sera from patients in various stages of Lyme borreliosis was evaluated against that of recombinant OspC derived from B. garinii and against conventional flagellum ELISAs (performed as described in Hansen K. et al. (1991) and Hansen K. et al. (1988)). These flagellum assays (testing for IgM and IgG antibodies to native B. burgdorferi flagellum) are commercially available, a μ-capture ELISA (DAKO, Denmark code K006), and an indirect IgG ELISA (DAKO, Denmark code K416). Both assays use flagella purified from strain DK1 belonging to the genospecies of B. afzelii. The ELISAs were performed according to the instructions of the manufacturer, and the results were expressed as optical density (OD) values. In both assays the diagnostic cut-off level was adjusted to a specificity of 98% based on the examination of 100 blood donors."}}, "note": "Square brackets hold non-standard residues; d marks the D form. Thz = O=C(O)[C@@H]1CSCN1"}
{"molecule": "NH2-PVVFESPKKP-COOH (H-PVVFESPKKP-OH) [SEQ ID NO: 29]", "values": [{"measurement": "ability to inhibit binding between rOspCfl and the 5 antisera", "setting": "[1]", "result": "capable of inhibiting binding"}]}
{"molecule": "NH2-PVVAESAKKP-COOH (H-PVVAESAKKP-OH) [SEQ ID NO: 26]", "values": [{"measurement": "number of sera in which binding to rOspCfl was inhibited", "setting": "[1]", "result": 1, "unit": "sera"}]}
{"molecule": "NH2-PVVPESPKKP-COOH (H-PVVPESPKKP-OH) [SEQ ID NO: 37]", "values": [{"measurement": "inhibition", "setting": "[1]; Serum 1", "result": 70, "unit": "% inhibition"}, {"measurement": "inhibition", "setting": "[1]; Serum 2", "result": 100, "unit": "% inhibition"}, {"measurement": "inhibition", "setting": "[1]; Serum 3", "result": 100, "unit": "% inhibition"}, {"measurement": "inhibition", "setting": "[1]; Serum 4", "result": 0, "unit": "% inhibition"}, {"measurement": "inhibition", "setting": "[1]; Serum 5", "result": 40, "unit": "% inhibition"}]}
{"molecule": "NH2-AVVAESPKKP-COOH (H-AVVAESPKKP-OH) [SEQ ID NO: 32]", "values": [{"measurement": "ability to inhibit binding between rOspCfl and the 5 antisera", "setting": "[1]", "result": "capable of inhibiting binding"}]}
{"molecule": "NH2-PVVAESPKNP-COOH (H-PVVAESPKNP-OH) [SEQ ID NO: 38]", "values": [{"measurement": "inhibition", "setting": "[1]; Serum 1", "result": 50, "unit": "% inhibition"}, {"measurement": "inhibition", "setting": "[1]; Serum 2", "result": 0, "unit": "% inhibition"}, {"measurement": "inhibition", "setting": "[1]; Serum 3", "result": 0, "unit": "% inhibition"}, {"measurement": "inhibition", "setting": "[1]; Serum 4", "result": 0, "unit": "% inhibition"}, {"measurement": "inhibition", "setting": "[1]; Serum 5", "result": 0, "unit": "% inhibition"}]}
{"molecule": "NH2-PVVAESPAKP-COOH (H-PVVAESPAKP-OH) [SEQ ID NO: 25]", "values": [{"measurement": "number of sera in which binding to rOspCfl was inhibited", "setting": "[1]", "result": 3, "unit": "sera"}]}
{"molecule": "NH2-PVVAASPKKP-COOH (H-PVVAASPKKP-OH) [SEQ ID NO: 28]", "values": [{"measurement": "ability to inhibit binding between rOspCfl and the 5 antisera", "setting": "[1]", "result": "capable of inhibiting binding"}]}
{"molecule": "NH2-PKKP-COOH (H-PKKP-OH) [SEQ ID NO: 22]", "values": [{"measurement": "patient sera in which binding between rOspCfl and antibodies was inhibited", "setting": "[1]; six NB sera with OD>1.5 in the IgM rOspC ELISA", "result": "one single serum"}]}
{"molecule": "NH2-PVAAESPKKP-COOH (H-PVAAESPKKP-OH) [SEQ ID NO: 30]", "values": [{"measurement": "ability to inhibit binding between rOspCfl and the 5 antisera", "setting": "[1]", "result": "capable of inhibiting binding"}]}
{"molecule": "NH2-PVVAES*KKP-COOH (H-PVVAES[Thz]KKP-OH; SMILES CC(C)[C@H](NC(=O)[C@@H]1CCCN1)C(=O)N[C@H](C(=O)N[C@@H](C)C(=O)N[C@@H](CCC(=O)O)C(=O)N[C@@H](CO)C(=O)N1CSC[C@H]1C(=O)N[C@@H](CCCCN)C(=O)N[C@@H](CCCCN)C(=O)N1CCC[C@H]1C(=O)O)C(C)C) [* designates L-thiazolidine-4-carboxylic acid]", "values": [{"measurement": "number of sera in which binding to rOspCfl was inhibited", "setting": "[1]", "result": 5, "unit": "sera"}]}
{"molecule": "NH2-PVVAESPKKP-CONH2 (H-PVVAESPKKP-NH2) [SEQ ID NO: 33]", "values": [{"measurement": "ability to inhibit binding between rOspCfl and the 5 antisera", "setting": "[1]", "result": "incapable of inhibiting binding"}]}
{"molecule": "NH2-PPPPESPKKP-COOH (H-PPPPESPKKP-OH) [SEQ ID NO: 39]", "values": [{"measurement": "inhibition", "setting": "[1]; Serum 1", "result": 70, "unit": "% inhibition"}, {"measurement": "inhibition", "setting": "[1]; Serum 2", "result": 100, "unit": "% inhibition"}, {"measurement": "inhibition", "setting": "[1]; Serum 3", "result": 100, "unit": "% inhibition"}, {"measurement": "inhibition", "setting": "[1]; Serum 4", "result": 0, "unit": "% inhibition"}, {"measurement": "inhibition", "setting": "[1]; Serum 5", "result": 40, "unit": "% inhibition"}]}
{"molecule": "NH2-PVVAESPKAP-COOH (H-PVVAESPKAP-OH) [SEQ ID NO: 24]", "values": [{"measurement": "number of sera in which binding to rOspCfl was inhibited", "setting": "[1]", "result": 1, "unit": "sera"}]}
{"molecule": "NH2-PAVAESPKKP-COOH (H-PAVAESPKKP-OH) [SEQ ID NO: 31]", "values": [{"measurement": "ability to inhibit binding between rOspCfl and the 5 antisera", "setting": "[1]", "result": "capable of inhibiting binding"}]}
{"molecule": "NH2-PVVAESPKKA-COOH (H-PVVAESPKKA-OH) [SEQ ID NO: 23]", "values": [{"measurement": "number of sera in which binding to rOspCfl was inhibited", "setting": "[1]", "result": 0, "unit": "sera"}]}
{"molecule": "9-arg: variant of SEQ ID NO: 1 in which 9-lys was substituted with 9-arg (PVVAESPKRP; FRAGMENT TYPE C-terminal; STRAIN DK6, INDIVIDUAL ISOLATE BN1068; listed as Borrelia garinii)", "values": [{"measurement": "ability to inhibit binding between rOspCfl and the 5 antisera", "setting": "[1]", "result": "no effect"}]}
{"molecule": "NH2-PVVAEAPKKP-COOH (H-PVVAEAPKKP-OH) [SEQ ID NO: 27]", "values": [{"measurement": "ability to inhibit binding between rOspCfl and the 5 antisera", "setting": "[1]", "result": "capable of inhibiting binding"}]}
{"molecule": "B1", "values": [{"measurement": "immunoassay results compared with rOspCfl from B. garinii", "setting": "[2]", "result": "almost identical picture"}]}
{"molecule": "B2", "values": [{"measurement": "Positive rOspCt ELISA results", "setting": "[2]; serum panel 1, IgM", "result": "no positives"}]}
{"molecule": "B3", "values": [{"measurement": "immunoassay results compared with rOspCfl from B. garinii", "setting": "[2]", "result": "almost identical picture"}]}
